In ChEMBL document CHEMBL1133884, “Microwave-assisted [6+4]-cycloaddition of fulvenes and alpha-pyrones to azulene-indoles: facile syntheses of novel antineoplastic agents” (Bioorg Med Chem Lett, 2001):

Columns and labels:
HOP-92 = test: In vitro inhibitory concentration against non small cell lung HOP-92 cell line; assay type: functional, cell-based; conditions: Homo sapiens
A498 = test: In vitro inhibitory concentration against renal cancer cell line A498; assay type: functional, cell-based; conditions: Homo sapiens
PC-3 = test: In vitro inhibitory concentration against prostate cancer cell line PC-3; assay type: functional, cell-based; conditions: Homo sapiens
CAKI-1 = test: In vitro inhibitory concentration against renal cancer cell line […]; assay type: functional, cell-based; conditions: Homo sapiens
[1] = Average inhibitory concentration against 60 human cell lines was reported; assay type: functional
UACC-257 = test: In vitro inhibitory concentration against melanoma cell line UACC-257; assay type: functional, cell-based; conditions: Homo sapiens
T47D = test: In vitro inhibitory concentration against breast cancer cell line T-47D; assay type: functional, cell-based; conditions: Homo sapiens
EKVX = test: In vitro inhibitory concentration against non small cell lung EKVX cell line; assay type: functional, cell-based; conditions: Homo sapiens
Hs-578T = test: In vitro inhibitory concentration against breast cancer cell line Hs 578.T; assay type: functional, cell-based; conditions: Homo sapiens
NCI-H322M = test: In vitro inhibitory concentration against non small cell lung NCI-H322M cell line; assay type: functional, cell-based; conditions: Homo sapiens
NCI-H226 = test: In vitro inhibitory concentration against non small cell lung NCI-H226 cell line; assay type: functional, cell-based; conditions: Homo sapiens
K562 = test: In vitro inhibitory concentration against leukemia cell line K-562; assay type: functional, cell-based; conditions: Homo sapiens
IGROV-1 = test: In vitro inhibitory concentration against ovarian cancer cell line IGROV1; assay type: functional, cell-based; conditions: Homo sapiens
SR = test: In vitro inhibitory concentration against leukemia cell line SR; assay type: functional, cell-based; conditions: Homo sapiens
UO-31 = test: In vitro inhibitory concentration against renal cancer cell line UO-31; assay type: functional, cell-based; conditions: Homo sapiens
U-251 = test: In vitro inhibitory concentration against CNS cancer cell line U251; assay type: functional, cell-based; conditions: Homo sapiens

| SMILES | IC50 (HOP-92) [nM] | IC50 (A498) [nM] | IC50 (CAKI-1) [nM] | IC50 [1] [nM] | IC50 (EKVX) [nM] | IC50 (NCI-H322M) [nM] | IC50 (NCI-H226) [nM] | IC50 (K562) [nM] | other results |
| --- | --- | --- | --- | --- | --- | --- | --- | --- | --- |
| Cc1c2cccc-2c(N(C)C)cc2c1[nH]c1ccccc12 | 560 | 20900 | 17400 | 3980 | – | – | – | – | IC50 (PC-3): 1410 nM |
| Cc1c2cccc-2ccc2c1[nH]c1ccc(Br)cc12 | – | 21900 | – | 5370 | 1780 | – | – | – | IC50 (UACC-257): 24000 nM; IC50 (T47D): 1700 nM |
| CC(=O)OCCOc1cc2c([nH]c3ccccc32)c(C)c2cccc1-2 | 1380 | – | – | 2750 | – | 14500 | 11200 | 510 | – |

The next lines start with results.

| IC50 (HOP-92) [nM] | IC50 (A498) [nM] | IC50 (CAKI-1) [nM] | IC50 [1] [nM] | IC50 (EKVX) [nM] | IC50 (NCI-H322M) [nM] | IC50 (NCI-H226) [nM] | IC50 (K562) [nM] | SMILES | other results |
| --- | --- | --- | --- | --- | --- | --- | --- | --- | --- |
| – | 13800 | – | 2510 | 1000 | 17000 | – | – | Cc1c2cccc-2c(OCCO)cc2c1[nH]c1ccccc12 | IC50 (Hs-578T): 930 nM |
| – | – | – | 2190 | – | – | 1380 | 3800 | CC(=O)Oc1ccc2[nH]c3c(C)c4cccc-4ccc3c2c1 | IC50 (IGROV-1): 1580 nM; IC50 (SR): 4570 nM |
| – | 11700 | 6600 | 2400 | – | – | – | – | Cc1c2cccc-2ccc2c1[nH]c1ccccc12 | IC50 (UO-31): 1620 nM; IC50 (U-251): 1480 nM |
